Drawing on US9890152B2 (Genentech, Inc., priority 2012, dated 2018), this text covers Ki for 15 molecules.

The target of this assay is T1, EGFR del746-750 T790M (Homo sapiens, UniProt P00533, DEL746-750/T790M).
T1 construct: purchased Carna Biosciences 08-528
T1 sequence (P00533 with tags, fused parts or gaps DEL746-750/T790M limits assumed): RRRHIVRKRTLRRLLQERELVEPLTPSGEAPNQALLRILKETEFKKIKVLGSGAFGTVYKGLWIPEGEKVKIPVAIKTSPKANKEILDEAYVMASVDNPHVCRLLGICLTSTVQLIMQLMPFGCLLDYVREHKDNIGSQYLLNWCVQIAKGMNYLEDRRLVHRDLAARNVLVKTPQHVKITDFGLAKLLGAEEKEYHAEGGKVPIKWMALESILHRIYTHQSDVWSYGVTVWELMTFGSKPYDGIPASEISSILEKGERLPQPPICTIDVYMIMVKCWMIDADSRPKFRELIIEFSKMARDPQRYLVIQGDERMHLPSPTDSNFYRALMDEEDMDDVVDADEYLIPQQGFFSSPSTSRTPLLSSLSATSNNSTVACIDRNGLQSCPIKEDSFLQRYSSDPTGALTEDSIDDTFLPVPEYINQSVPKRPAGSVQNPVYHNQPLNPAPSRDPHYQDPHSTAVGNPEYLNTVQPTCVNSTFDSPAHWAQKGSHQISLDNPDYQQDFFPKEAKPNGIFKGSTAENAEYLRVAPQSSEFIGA
As to the kind of experiment: EGFR del746-750 T790M biochemical assay (Caliper mobility shift). As to conditions: 5 μM ATP, 30 min, room temperature; apparent Ki (Morrison) converted by Cheng-Prusoff, Km of ATP 2.1 μM; read-out: EGFR(T790M/d746-750) Ki.
With `COC1CCN(c2nccc(Nc3cc4c(cn3)nc([C@@H](C)O)n4[C@H](C)C(F)(F)F)n2)CC1F` (mixture of isomers) [Example 297, (R)-1-[6-[2-(cis-3-Fluoro-4-methoxypiperidin-1-yl)pyrimidin-4-ylamino]-1-((R)-2,2,2-trifluoro-1-methylethyl)-1H-imidazo[4,5-c]pyridin-2-yl]ethanol], the Ki was 0.04 µM.

Take `Cc1nc2cnc(Nc3ccnc(NCC4CCS(=O)(=O)C4)n3)cc2n1C(C)C` (stereo not drawn) [Example 652]: the Ki worked out at 1.16 µM. Under `CC[C@@H](C)n1c([C@@H](C)O)nc2cnc(Nc3ccnc(-c4cnn(S(=O)(=O)CC)c4)n3)cc21` [Example 281, (R)-1-{1-((R)-sec-Butyl)-6-[2-(1-ethanesulfonyl-1H-pyrazol-4-yl)-pyrimidin-4-ylamino]-1H-imidazo[4,5-c]pyridin-2-yl}ethanol] stands 0.00237 µM; under `CC1CC1n1c(CO)nc2cnc(Nc3ccnc(-c4cnn(S(=O)(=O)C5CC5)c4)n3)cc21` (stereo not drawn) [Example 698], 0.00702 µM; under `Cc1nc2cnc(Nc3ccnc(-c4cnn(S(C)(=O)=O)c4)n3)cc2n1C(C)C` [Example 91, 1-isopropyl-2-methyl-N-(2-(1-(methylsulfonyl)-1H-pyrazol-4-yl)pyrimidin-4-yl)-1H-imidazo[4,5-c]pyridin-6-amine], 0.0035 µM. Under `CO[C@@]1(C)CCN(c2nccc(Nc3cc4c(cn3)nc(C)n4C(C)C)n2)C[C@H]1F` [Example 673] stands 0.0971 µM; under `CCc1ncc(-c2nccc(Nc3cc4c(cn3)nc(CO)n4C(C)C)n2)s1` [Example 671], 0.0126 µM; under `CO[C@H]1CCN(c2nccc(Nc3cc4c(cn3)nc(CO)n4C(C)C)n2)C[C@H]1F` (racemic) [Example 526, (±)-{6-[2-((cis)-3-Fluoro-4-methoxypiperidin-1-yl)pyrimidin-4-ylamino]-1-isopropyl-1H-imidazo[4,5-c]pyridin-2-yl}methanol], 0.0505 µM. Under `C[C@H](n1c([C@@H](C)O)nc2cnc(Nc3ccnc(N4CC[C@H](O)[C@H](F)C4)n3)cc21)C(F)(F)F` [Example 289, (3R,4S)-3-Fluoro-1-{4-[2-((R)-1-hydroxyethyl)-1-((S)-2,2,2-trifluoro-1-methylethyl)-1H-imidazo[4,5-c]pyridin-6-ylamino]pyrimidin-2-yl}-piperidin-4-ol] stands 0.00335 µM; under `C[C@H](n1c([C@@H](C)O)nc2cnc(Nc3ccnc(N4C[C@@H](F)[C@@H](O)[C@@H](F)C4)n3)cc21)C(F)(F)F` [Example 701], 0.0044 µM.

`CC[C@@H](C)n1cc(C(=O)NC2CCOCC2)c2cnc(Nc3ccnc(N4CC[C@H](OC)[C@H](F)C4)n3)cc21` (single isomer, unassigned) [Example 339]: the Ki came out at 0.00412 µM. Under `Cc1cc(-c2nccc(Nc3cc4c(cn3)nc(C)n4C(C)C)n2)sn1` [Example 360, 1-Isopropyl-2-methyl-N-(2-(3-methylisothiazol-5-yl)pyrimidin-4-yl)-1H-imidazo[4,5-c]pyridin-6-amine] stands 0.0297 µM. Under `CC(C)n1c(CO)nc2cnc(Nc3ccnc(N4CC[C@@H](O)[C@H](C(F)(F)F)C4)n3)cc21` (racemic) [Example 627, (±)-(trans)-1-(4-(2-(Hydroxymethyl)-1-isopropyl-1H-imidazo[4,5-c]pyridin-6-ylamino)pyrimidin-2-yl)-3-(trifluoromethyl)piperidin-4-ol] stands 1.57 µM.

Turning to `Cc1nc2cnc(Nc3ccnc(N4CC[C@H](C#N)C4)n3)cc2n1C(C)C` [Example 679], the Ki was determined as 0.168 µM. Under `COC1CCN(c2nccc(Nc3cc4c(cn3)c(C(=O)NCCn3ccnc3)cn4C(C)C)n2)CC1` [Example 63, N-(2-(1H-Imidazol-1-yl)ethyl)-1-isopropyl-6-(2-(4-methoxypiperidin-1-yl)pyrimidin-4-ylamino)-1H-pyrrolo[3,2-c]pyridine-3-carboxamide] stands 0.0101 µM.
